This passage reports IC50 and inhibition results from publication PMC11597050, “Virtual Screening, Molecular Dynamics, and Mechanism Study of Homeodomain-Interacting Protein Kinase 2 Inhibitor in Renal Fibroblasts” (Pharmaceuticals, 2024).

A value given as a limit tells only on which side of the number the result lay.

Holding throughout (format): biochemical
The target of test [1] is T1, HIPK2 (Homo sapiens, UniProt Q9H2X6). Briefly: ADP-Glo kinase assay (positive control drug). The conditions noted are these: read-out: IC50 ± SEM (μM) / HIPK2. On the technique in general: ADP-Glo first removes unused ATP, then detects ADP through luciferase.
For test [2], the target named is HIPK3 (Homo sapiens, UniProt Q9H422). As to the kind of experiment: kinase inhibition assay, percent inhibition at […].
Test [3] has as its target T1, HIPK2. As to the kind of experiment: ADP-Glo kinase assay (MBP substrate). The conditions noted are these: read-out: IC50 ± SEM (μM) / HIPK2.

T1 sequence (Q9H2X6 whole entry): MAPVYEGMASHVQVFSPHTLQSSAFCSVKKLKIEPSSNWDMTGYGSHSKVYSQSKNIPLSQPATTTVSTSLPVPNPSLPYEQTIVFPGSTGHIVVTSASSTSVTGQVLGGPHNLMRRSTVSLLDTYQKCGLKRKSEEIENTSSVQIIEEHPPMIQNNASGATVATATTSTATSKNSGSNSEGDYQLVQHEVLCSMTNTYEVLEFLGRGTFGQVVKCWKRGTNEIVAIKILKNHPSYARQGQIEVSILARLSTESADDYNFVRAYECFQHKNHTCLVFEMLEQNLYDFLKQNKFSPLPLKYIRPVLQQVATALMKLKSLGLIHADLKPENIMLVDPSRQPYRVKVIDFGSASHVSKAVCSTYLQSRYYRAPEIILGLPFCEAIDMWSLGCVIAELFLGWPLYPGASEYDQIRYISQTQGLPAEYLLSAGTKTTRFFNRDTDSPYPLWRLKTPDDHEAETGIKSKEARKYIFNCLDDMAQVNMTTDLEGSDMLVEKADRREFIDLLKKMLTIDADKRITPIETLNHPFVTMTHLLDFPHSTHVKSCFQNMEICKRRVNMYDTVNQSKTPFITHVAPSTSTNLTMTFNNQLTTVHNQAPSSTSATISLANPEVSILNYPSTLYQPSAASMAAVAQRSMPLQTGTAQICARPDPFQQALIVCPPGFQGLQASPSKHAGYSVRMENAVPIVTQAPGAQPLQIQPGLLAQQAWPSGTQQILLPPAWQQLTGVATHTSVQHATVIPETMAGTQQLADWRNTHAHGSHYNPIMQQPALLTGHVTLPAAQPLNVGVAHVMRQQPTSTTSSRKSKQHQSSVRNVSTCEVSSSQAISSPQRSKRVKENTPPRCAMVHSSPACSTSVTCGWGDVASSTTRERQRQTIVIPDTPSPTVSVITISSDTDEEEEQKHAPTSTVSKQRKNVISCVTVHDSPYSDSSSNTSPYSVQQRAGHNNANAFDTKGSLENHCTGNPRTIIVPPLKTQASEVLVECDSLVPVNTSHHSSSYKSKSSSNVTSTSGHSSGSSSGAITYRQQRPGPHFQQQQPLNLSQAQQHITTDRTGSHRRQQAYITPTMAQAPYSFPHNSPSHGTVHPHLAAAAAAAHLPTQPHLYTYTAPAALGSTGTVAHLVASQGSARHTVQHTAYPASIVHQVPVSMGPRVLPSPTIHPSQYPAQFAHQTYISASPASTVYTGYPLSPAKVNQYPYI
Sequence of HIPK3 (Q9H422 whole entry): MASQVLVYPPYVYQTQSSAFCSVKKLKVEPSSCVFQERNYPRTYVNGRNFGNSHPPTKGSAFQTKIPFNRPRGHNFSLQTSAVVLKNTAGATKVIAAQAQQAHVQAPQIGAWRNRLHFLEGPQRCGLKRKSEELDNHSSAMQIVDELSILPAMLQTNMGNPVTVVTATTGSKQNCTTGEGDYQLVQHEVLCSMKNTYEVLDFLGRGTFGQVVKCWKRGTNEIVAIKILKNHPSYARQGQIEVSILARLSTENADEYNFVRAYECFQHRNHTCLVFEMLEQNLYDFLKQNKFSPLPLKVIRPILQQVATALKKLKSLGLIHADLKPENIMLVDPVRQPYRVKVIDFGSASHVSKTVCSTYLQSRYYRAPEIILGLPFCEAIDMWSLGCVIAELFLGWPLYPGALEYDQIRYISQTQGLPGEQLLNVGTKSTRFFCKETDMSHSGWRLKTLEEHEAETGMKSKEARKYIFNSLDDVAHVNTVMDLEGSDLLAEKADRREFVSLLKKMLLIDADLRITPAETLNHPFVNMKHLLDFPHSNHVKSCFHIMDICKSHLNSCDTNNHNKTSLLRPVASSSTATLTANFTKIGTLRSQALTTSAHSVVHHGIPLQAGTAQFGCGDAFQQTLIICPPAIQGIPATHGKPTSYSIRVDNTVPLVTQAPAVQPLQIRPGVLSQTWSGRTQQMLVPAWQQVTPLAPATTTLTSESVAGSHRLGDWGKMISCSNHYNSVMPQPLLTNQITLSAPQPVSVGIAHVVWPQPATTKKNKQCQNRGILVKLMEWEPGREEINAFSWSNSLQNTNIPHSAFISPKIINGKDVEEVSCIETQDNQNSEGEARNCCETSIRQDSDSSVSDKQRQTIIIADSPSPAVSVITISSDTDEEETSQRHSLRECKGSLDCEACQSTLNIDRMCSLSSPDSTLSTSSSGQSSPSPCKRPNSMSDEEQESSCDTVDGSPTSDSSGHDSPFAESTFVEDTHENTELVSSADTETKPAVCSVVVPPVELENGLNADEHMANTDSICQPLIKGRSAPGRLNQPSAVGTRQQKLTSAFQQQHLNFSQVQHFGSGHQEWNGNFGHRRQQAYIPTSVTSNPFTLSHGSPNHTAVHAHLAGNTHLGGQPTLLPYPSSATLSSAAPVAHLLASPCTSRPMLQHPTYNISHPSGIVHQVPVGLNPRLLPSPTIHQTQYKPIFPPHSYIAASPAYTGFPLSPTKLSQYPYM

As to `CCN1CCN(Cc2ccc(Nc3ncc(F)c(-c4cc(F)c5nc(C)n(C(C)C)c5c4)n3)nc2)CC1` [Abemaciclib], the IC50 in test [1] was 0.45 ± 0.12 µM. In test [2], the inhibition – broadly, the percentage by which the read-out fell short of the control – at 10 µM was greater than 90%.

In the case of `CCCNc1ccc2ncc(-c3ccc4[nH]ncc4c3)n2n1` [T9521, 3-(1H-indazol-5-yl)-N-propylimidazo[1,2-b]pyridazin-6-amine], the IC50 in test [3] is 0.97 ± 0.04 µM.

`O=C1Nc2ccc3ncsc3c2/C1=C/c1c[nH]cn1` [T16550]: the IC50 in test [3] was 3.58 ± 0.06 µM.
